These results are taken from patent US10752640B2, “Compounds active towards bromodomains” (NUEVOLUTION A/S, priority 2014, dated 2020).

Experiment [1] deals with T1, BRD4(1), first bromodomain of BRD4 (Homo sapiens, UniProt O60885).
T1 construct: BRD4(1) for the first bromodomain of BRD4; purchased DiscoveRx Corporation (assay service); host or cells: T7 phage grown in an E. coli host derived from the BL21 strain
The experiment can be described thus: Bromoscan assay BRD4(1) (DiscoveRx). In kind it is binding. The conditions noted are these: for Kd: first bromodomain of BRD4, read-out: BromoScan BRD4_1 Kd/nM; for BromoScan BRD4_2/1: ratio of Kd BRD4_2 to BRD4_1, selectivity for BRD4_1 over BRD4_2. The procedure:
(§1) Bromoscan assays were run by DiscoveRx Corporation. The relevant assay names are BRD4(1) for the first bromodomain of BRD4 and BRD4(2) for the second bromodomain of BRD4. Further Bromoscan assays covering other bromodomains could be employed to establish the selectivity profile of a compound of interest. To run the Bromoscan assay, a T7 phage strain displaying the relevant bromodomain was grown in parallel in 24-well blocks in an E. coli host derived from the BL21 strain. E. coli were grown to log-phase and infected with T7 phage from a frozen stock (multiplicity of infection=0.4) and incubated with shaking at 32° C. until lysis (90-150 minutes). The lysates were centrifuged (5,000×g) and filtered (0.2 μm) to remove cell debris. Streptavidin-coated magnetic beads were treated with biotinylated small molecule or acetylated peptide ligands for 30 minutes at room temperature to generate affinity resins for bromodomain assays. The liganded beads were blocked with excess biotin and washed with blocking buffer (SeaBlock (Pierce), 1% BSA (bovine serum albumin), 0.05% Tween 20, 1 mM DTT (dithiothreitol)) to remove unbound ligand and to reduce non-specific phage binding. Binding reactions were assembled by combining bromodomains, liganded affinity beads, and test compounds in 1× binding buffer (17% SeaBlock, 0.33×PBS, 0.04% Tween 20, 0.02% BSA, 0.004% Sodium azide, 7.4 mM DTT). Test compounds were prepared as 1000× stocks in 100% DMSO and subsequently diluted 1:10 in monoethylene glycol (MEG) to create stocks at 100× the screening concentration (resulting stock solution is 10% DMSO/90% MEG). The compounds were then diluted directly into the assays such that the final concentration of DMSO and MEG were 0.1% and 0.9%, respectively. All reactions were performed in polystyrene 96-well plates in a final volume of 0.135 ml. The assay plates were incubated at room temperature with shaking for 1 hour and the affinity beads were washed with wash buffer (1×PBS, 0.05% Tween 20). The beads were then re-suspended in elution buffer (lx PBS, 0.05% Tween 20, 2 μM nonbiotinylated affinity ligand) and incubated at room temperature with shaking for 30 minutes. The bromodomain concentration in the eluates was measured by qPCR (quantitative real-time polymerase chain reaction).

For experiment [2], the target named is T2, BRD4(2), second bromodomain of BRD4 (Homo sapiens, UniProt O60885).
T2 construct: BRD4(2) for the second bromodomain of BRD4; purchased DiscoveRx Corporation (assay service); host or cells: T7 phage grown in an E. coli host derived from the BL21 strain
Kind of experiment: Bromoscan assay BRD4(2) (DiscoveRx). The following applies: read-out: BromoScan BRD4_2 Kd/nM. In kind it is binding. The procedure: as §1

The subject of another experiment is IL-12p40. The experiment can be described thus: Cytokine release inhibition assay: LPS-induced cytokine release from human PBMCs. In kind it is cell-based. The following applies: PBMC, LPS 1 ng/mL, 18 h, read-out: LPS IC50 IL12p40 μM. The procedure:
Cytokine release inhibition assay: LPS-induced cytokine release from human peripheral blood mononuclear cells (PBMCs)
200,000 PBMCs were seeded per well of a 96-well plate in 160 μL of medium. Afterwards, 20 μL of ten times concentrated working dilutions of compound or DMSO control were added per well. Cells were pre-incubated with compounds for 1 h at 37° C., 5% CO2, 95% humidity and 20 μL of ten times concentrated LPS was added to cells (Sigma L4391, final concentration 1 ng/mL). Following 18 h incubation at 37° C., 5% CO2, 95% humidity, plates were centrifuged for 10 minutes at 300×g. 150 μL of supernatants were collected for IL-12p40 determination. The concentration of IL-12p40 in supernatants was determined by sandwich ELISA (enzyme-linked immunosorbent assay) using capture and detection antibodies according to the manufacturer's instructions (R&D Systems DY1240). Data can be analyzed using GraphPad Prism, and IC50 data can be obtained using non-linear regression curve fit using log(compound) vs response (variable slope).

For a further experiment, the target named is BRD4 protein (Homo sapiens, UniProt O60885). The experiment can be described thus: FRET assay, half maximal inhibitory concentration (IC50). It counts as binding. The following applies: BRD4 protein 50 nM, Biotin-H4KAc4 peptide 12.5 nM; List of Classification. The essentials: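 HTRF: 50 nM BRD4 preincubated 30 min at room temperature with compound (10-fold series from 50 μM in 12.5% DMSO) in 50 mM HEPES pH 7.5, 100 mM NaCl, 0.05% CHAPS. Then 12.5 nM biotin-H4KAc4 peptide for 30 min, and anti-GST XL665 (10 nM) plus streptavidin cryptate (2.4 nM) with 0.4 M KF for 1 h. IC50 by variable-slope fit.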

A further experiment concerns MV-4-11 tumor cells. Kind of experiment: Cell viability assay (CellTiter-Glo). In kind it is cell-based. The following applies: Homo sapiens, MV4-11; MV-4-11 cells, 72 hours with compound. The procedure: Grow MV-4-11 tumor cells (ATCC CRL-9591) in suspension at 37° C. in a humidified atmosphere (5% CO2, 95% air, IMDM (Iscove's Modified Dulbecco's Medium) medium supplemented with 10% FBS (fetal bovine serum)) Seed cells at a density of 10.000 cells per well of a flat-bottomed 96 well plate in 50 μL of medium. After 24 hours, add 50 μL of test compound or DMSO control from a pre-generated compound dilution series in medium. After an additional 72 hours, add 100 μL of pre-mixed CellTiter-Glo reagent (Promega G7570) to each well, shake for two minutes to allow cell lysis followed by 10 minutes of incubation at room temperature without shaking. Read luminescence on an Envision reader (Perkin Elmer). The inhibition of cell viability (IC) can be expressed as follows:
[formula] IC data can be analyzed using GraphPad Prism, and IC50 data can be obtained using non-linear regression curve fit using log(compound) vs response (variable slope). The effect of compound on the viability of other cell lines can be assayed under similar conditions, taking into account the growth requirement of the individual cell line.
On the technique in general: In ATP-based viability assays light output follows the ATP content of the culture.

As to `Cc1cc(O)nc2ccc(NC(=O)c3cc(C(C)O)ncc3N3CCCC3)cc12` (stereo not drawn) [Compound-43], the Kd in experiment [1] turned out to be 2.4 nM; in experiment [2] it was 79 nM. Besides, the “BromoScan BRD4_2/1” value in experiment [1] worked out at 32.9. In addition, the figures for the IC50 in the experiment with IL-12p40 and at BRD4 protein were 400 nM and less than 200 nM, respectively.

With `Cc1cc(O)nc2ccc(NC(=O)c3cc(S(=O)(=O)N4CCCCC4)ccc3N3CCOCC3)cc12` [Compound-67, N-(2-hydroxy-4-methyl-6-quinolyl)-2-morpholino-5-(1-piperidylsulfonyl)benzamide], the Kd in experiment [1] came out at 6.2 nM; in experiment [2], 1180 nM. Moreover, the “BromoScan BRD4_2/1” value in experiment [1] is reported as 190.9. Further, the IC50 with MV-4-11 tumor cells is 1200 nM; against BRD4 protein, less than 200 nM.

Turning to `Cc1cc2nc(O)cc(C)c2cc1NC(=O)c1cc(S(=O)(=O)N(C)C)ccc1N1CCOCC1` [Compound-99, 5-(dimethylsulfamoyl)-N-(2-hydroxy-4,7-dimethyl-6-quinolyl)-2-morpholino-benzamide], the Kd came to 12 nM in experiment [1] and 5600 nM in experiment [2]. Further, the “BromoScan BRD4_2/1” value in experiment [1] came out at 466.7. The IC50 is 400 nM with IL-12p40 and less than 200 nM against BRD4 protein.

Turning to `Cc1cc(O)nc2c(C)cc(NC(=O)c3cc(S(=O)(=O)N(C)C)ccc3N3CCCC3)cc12` [Compound-107, 5-(dimethylsulfamoyl)-N-(2-hydroxy-4,8-dimethyl-6-quinolyl)-2-pyrrolidin-1-yl-benzamide], the Kd in experiment [1] stood at 3.6 nM; in experiment [2] it was 28 nM. Moreover, the “BromoScan BRD4_2/1” value in experiment [1] was determined as 7.8. The IC50 in the experiment on MV-4-11 tumor cells was 700 nM; on BRD4 protein it was less than 200 nM.

Take `Cc1cc(O)nc2ccc(NC(=O)c3cc(C4(N5CCOCC5)CC4)ccc3N3CCCC3)cc12` [Compound-113, N-(4-methyl-2-oxo-1,2-dihydroquinolin-6-yl)-5-(1-morpholinocyclopropyl)-2-(pyrrolidin-1-yl)benzamide]: the results for the Kd in experiment [1] and in experiment [2] were 16 nM and 190 nM, respectively. The “BromoScan BRD4_2/1” value in experiment [1] was found to be 11.9. For the same compound, the IC50 in the experiment on MV-4-11 tumor cells was 600 nM; on BRD4 protein, less than 200 nM.

With `Cc1cc(O)nc2ccc(NC(=O)c3cccnc3N3CCOCC3)cc12` [Compound-128, N-(2-hydroxy-4-methyl-6-quinolyl)-2-morpholino-pyridine-3-carboxamide], the Kd in experiment [1] is 15 nM; in experiment [2] it was 2500 nM. The “BromoScan BRD4_2/1” value in experiment [1] amounted to 166.7. The results for the IC50 with IL-12p40 and at BRD4 protein were 300 nM and less than 200 nM, respectively.

For the compound `Cc1cc(O)nc2ccc(NC(=O)c3cc(CN4CCN(C)CC4)ccc3N3CCCC3)cc12` [compound 1, N-(2-hydroxy-4-methylquinolin-6-yl)-5-((4-methylpiperazin-1-yl)methyl)-2-(pyrrolidin-1-yl)benzamide], the Kd in experiment [1] came out at 13 nM; in experiment [2], 330 nM. In addition, in experiment [1], the “BromoScan BRD4_2/1” value is 25.4. Further, the IC50 with IL-12p40 is 300 nM; in the experiment with MV-4-11 tumor cells, 600 nM; against BRD4 protein, less than 200 nM.

As a reminder, the IC50 is the point on the concentration scale where inhibition reaches its midpoint.
